The values below come from US20050209157A1, “Short bioactive peptides and methods for their use” (priority 2001, published 2005).

No end group written: not given here.

Assay [1] relates to S. typhimurium 14028S. It counts as cell-based, Salmonella typhimurium. The conditions noted are these: Table 14.
The test system of assay [2] is P. aeruginosa H374. It counts as cell-based, Pseudomonas aeruginosa. The conditions noted are these: Table 14; in µg/mL.
Assay [3] has as its system Candida albicans 105. It counts as cell-based. To be noted: Table 15; in µg/mL.
The subject of assay [4] is S. aureus (MRSA). The assay is classed as cell-based, Staphylococcus aureus. The conditions noted are these: Table 15, strain SAP0017; in µg/mL.
The test system of assay [5] is S. epidermidis C621. The assay is classed as cell-based, Staphylococcus epidermidis. The conditions noted are these: Table 15.
The test system of assay [6] is Pseudomonas aeruginosa H187. It counts as cell-based. The conditions noted are these: Table 15; in µg/mL.
For assay [7], the system named is E. coli UB1005. The assay is classed as cell-based, Escherichia coli. To be noted: Table 14.

Turning to KAKLF-NH2 [P130 (92)], in assay [1], the MIC S. typhimurium 14028S is above 128 µg/mL. Besides, the “MIC P. aeruginosa H374” value in assay [2] is above 128. The “MIC C. albicans 105” value in assay [3] was above 128. Further, the “MIC S. aureus SAP0017” value in assay [4] is above 128. This substance yielded an MIC S. epidermidis C621 in assay [5] above 128 µg/mL. Moreover, the “MIC P. aeruginosa H187” value in assay [6] is recorded as above 128. This substance also yielded an MIC E. coli UB1005 in assay [7] above 128 µg/mL.
As to FAKKLAKKLAKAAL-NH2 [P76 (52)], the MIC S. typhimurium 14028S in assay [1] turned out to be 128 µg/mL. Besides, the “MIC P. aeruginosa H374” value in assay [2] is recorded as 64. Also, the “MIC C. albicans 105” value in assay [3] was found to be 64. In addition, the “MIC S. aureus SAP0017” value in assay [4] was above 128. Further, in assay [5], the MIC S. epidermidis C621 is above 128 µg/mL. In assay [6], the “MIC P. aeruginosa H187” value is listed as above 128. This substance also registered an MIC E. coli UB1005 in assay [7] of 16 µg/mL.
As for FAKLF-NH2 [P129 (91)], the MIC S. typhimurium 14028S in assay [1] is above 128 µg/mL. The “MIC P. aeruginosa H374” value in assay [2] is listed as above 128. Besides, in assay [3], the “MIC C. albicans 105” value is given as 128. The “MIC S. aureus SAP0017” value in assay [4] was above 128. The substance further gave an MIC S. epidermidis C621 in assay [5] of 32 µg/mL. Also, the “MIC P. aeruginosa H187” value in assay [6] was above 128. Also, the MIC E. coli UB1005 in assay [7] was determined as 64 µg/mL.
In assay [1], FAKLLAKLAKKSL-NH2 [P127 (89)] displayed an MIC S. typhimurium 14028S above 128 µg/mL. The “MIC P. aeruginosa H374” value in assay [2] is reported as above 128. In assay [3], the “MIC C. albicans 105” value is 32. The “MIC S. aureus SAP0017” value in assay [4] is above 128. Further, the MIC S. epidermidis C621 in assay [5] was found to be 64 µg/mL. In addition, the “MIC P. aeruginosa H187” value in assay [6] is reported as above 128. For the same substance, in assay [7], the MIC E. coli UB1005 came out at 128 µg/mL.
FAKLWAKLAKKL-NH2 [P136 (98)]: in assay [1], the MIC S. typhimurium 14028S was above 128 µg/mL. Also, the “MIC P. aeruginosa H374” value in assay [2] is given as above 128. Moreover, in assay [3], the “MIC C. albicans 105” value was 64. Also, in assay [4], the “MIC S. aureus SAP0017” value is reported as above 128. The MIC S. epidermidis C621 in assay [5] stood at 128 µg/mL. For the same substance, the “MIC P. aeruginosa H187” value in assay [6] was above 128. For the same substance, in assay [7], the MIC E. coli UB1005 turned out to be 128 µg/mL.
For the substance FALAKALKKAL-NH2 [P166 (127)], the MIC S. typhimurium 14028S in assay [1] is above 128 µg/mL. Also, in assay [2], the “MIC P. aeruginosa H374” value is above 128. Besides, in assay [3], the “MIC C. albicans 105” value is listed as above 128. In addition, the “MIC S. aureus SAP0017” value in assay [4] is reported as above 128. Besides, in assay [5], the MIC S. epidermidis C621 was above 128 µg/mL. For the same substance, the “MIC P. aeruginosa H187” value in assay [6] is given as above 128. In assay [7], the MIC E. coli UB1005 was above 128 µg/mL.
For the substance FAKLLAKLAKKGL-NH2 [P152 (114)], the MIC S. typhimurium 14028S in assay [1] was above 128 µg/mL. Besides, the “MIC P. aeruginosa H374” value in assay [2] is given as above 128. Also, the “MIC C. albicans 105” value in assay [3] was determined as 128. The “MIC S. aureus SAP0017” value in assay [4] is recorded as above 128. The MIC S. epidermidis C621 in assay [5] was 32 µg/mL. For the same substance, the “MIC P. aeruginosa H187” value in assay [6] is above 128. For the same substance, in assay [7], the MIC E. coli UB1005 stood at 32 µg/mL.
Regarding FAKAIAKIAFGKGIGKVGKKLL-NH2 [P134 (96)], in assay [1], the MIC S. typhimurium 14028S was above 128 µg/mL. Further, the “MIC P. aeruginosa H374” value in assay [2] came to 128. Besides, the “MIC C. albicans 105” value in assay [3] was 64. Also, in assay [4], the “MIC S. aureus SAP0017” value is on record as above 128. Moreover, the MIC S. epidermidis C621 in assay [5] is 128 µg/mL. In assay [6], the “MIC P. aeruginosa H187” value was above 128. In assay [7], this substance returned an MIC E. coli UB1005 of 128 µg/mL.
Consider FALKALKKAL-NH2 [P170 (131)], for which the MIC S. typhimurium 14028S in assay [1] was above 128 µg/mL. For the same substance, the “MIC P. aeruginosa H374” value in assay [2] is reported as above 128. In addition, the “MIC C. albicans 105” value in assay [3] is listed as 128. The “MIC S. aureus SAP0017” value in assay [4] is reported as 0.128. Besides, the MIC S. epidermidis C621 in assay [5] is above 128 µg/mL. In assay [6], the “MIC P. aeruginosa H187” value is given as above 128. The substance also registered an MIC E. coli UB1005 in assay [7] of 64 µg/mL.
In assay [1], FAKIIAKIAKKI-NH2 [P143 (105)] gave an MIC S. typhimurium 14028S above 128 µg/mL. Further, the “MIC P. aeruginosa H374” value in assay [2] was above 128. Also, in assay [3], the “MIC C. albicans 105” value was above 128. Also, the “MIC S. aureus SAP0017” value in assay [4] is recorded as above 128. Also, the MIC S. epidermidis C621 in assay [5] is above 128 µg/mL. In assay [6], the “MIC P. aeruginosa H187” value is above 128. The substance further yielded an MIC E. coli UB1005 in assay [7] above 128 µg/mL.
VALALKALKKL-NH2 [P180 (141)] had an MIC S. typhimurium 14028S in assay [1] above 128 µg/mL. Besides, the “MIC P. aeruginosa H374” value in assay [2] is recorded as above 128. In addition, in assay [3], the “MIC C. albicans 105” value is above 128. For the same substance, the “MIC S. aureus SAP0017” value in assay [4] is above 128. Further, the MIC S. epidermidis C621 in assay [5] was above 128 µg/mL. Also, the “MIC P. aeruginosa H187” value in assay [6] is given as above 128. The MIC E. coli UB1005 in assay [7] was above 128 µg/mL.
On to FALALKA-NH2 [P141 (103)], for which the MIC S. typhimurium 14028S in assay [1] is above 128 µg/mL. For the same substance, in assay [2], the “MIC P. aeruginosa H374” value is on record as above 128. Further, the “MIC C. albicans 105” value in assay [3] was above 128. Moreover, the “MIC S. aureus SAP0017” value in assay [4] is above 128. In assay [5], this substance displayed an MIC S. epidermidis C621 above 128 µg/mL. In addition, in assay [6], the “MIC P. aeruginosa H187” value is listed as above 128. Besides, in assay [7], the MIC E. coli UB1005 was above 128 µg/mL.
Substance FAKLAKKALAKLL-NH2 [P148 (110)] registered an MIC S. typhimurium 14028S in assay [1] above 128 µg/mL. Moreover, the “MIC P. aeruginosa H374” value in assay [2] is given as above 128. The “MIC C. albicans 105” value in assay [3] stood at 128. Besides, the “MIC S. aureus SAP0017” value in assay [4] was above 128. In assay [5], this substance returned an MIC S. epidermidis C621 of 128 µg/mL. In addition, in assay [6], the “MIC P. aeruginosa H187” value is given as above 128. For the same substance, the MIC E. coli UB1005 in assay [7] worked out at 128 µg/mL.
